Data reported in patent publication US20150315188A1, “COMPOUNDS AND METHODS FOR TREATMENT OF HYPERTENSION” (MEDIVATION TECHNOLOGIES, INC., priority 2012, published 2015).

Assays:
Design in all cases: purchased Milipore (Millipore)
[1] = molecular target: T1, Human adrenergic α1B receptor (Homo sapiens, UniProt P35368); experiment: Radioligand binding, adrenergic α1B (Protocol Group B); settings: Protocol Group B; for inhibition at 0.3 µM / Percentage inhibition of ligand binding, Adrenergic α1B (0.3 μM): 0.3 μM compound; for inhibition at 0.3 µM: read-out: Percentage inhibition of ligand binding, Adrenergic α1B (0.3 μM)
T1 sequence (P35368 1-520): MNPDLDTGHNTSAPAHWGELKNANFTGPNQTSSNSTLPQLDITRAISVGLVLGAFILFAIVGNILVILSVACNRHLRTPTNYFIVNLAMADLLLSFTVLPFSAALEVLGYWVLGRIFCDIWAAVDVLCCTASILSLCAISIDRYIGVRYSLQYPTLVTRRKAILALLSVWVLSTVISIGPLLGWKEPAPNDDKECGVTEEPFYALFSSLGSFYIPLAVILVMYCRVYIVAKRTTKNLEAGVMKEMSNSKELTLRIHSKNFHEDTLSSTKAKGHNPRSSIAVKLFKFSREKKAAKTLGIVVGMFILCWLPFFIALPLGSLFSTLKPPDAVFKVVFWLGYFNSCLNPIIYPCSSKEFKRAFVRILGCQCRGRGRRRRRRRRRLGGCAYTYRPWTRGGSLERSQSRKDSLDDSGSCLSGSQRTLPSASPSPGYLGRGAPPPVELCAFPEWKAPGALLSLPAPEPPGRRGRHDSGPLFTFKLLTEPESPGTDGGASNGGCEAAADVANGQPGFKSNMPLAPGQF
Method in brief: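 Recombinant human α1B membranes incubated with test compound and 0.3 nM [3H]prazosin, 60 min at 25 °C, in 50 mM Tris-HCl pH 7.4, 10 mM MgCl2, 1 mM EDTA; nonspecific binding with 10 μM prazosin. Filter-bound radioactivity counted; values are % inhibition of specific binding or estimated Ki.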

[2] = molecular target: T2, Human adrenergic α2B receptor (Homo sapiens, UniProt P18089); experiment: Radioligand binding, adrenergic α2B (Protocol Group B); settings: Protocol Group B; for Percentage inhibition of ligand binding, Adrenergic α2B (10 nM): 10 nM compound, 0.01 µM; for Percentage inhibition of ligand binding, Adrenergic α2B (30 nM): 30 nM compound, 0.03 µM; for Percentage inhibition of ligand binding, Adrenergic α2B (0.1 μM): 0.1 μM compound
T2 sequence (P18089 1-450): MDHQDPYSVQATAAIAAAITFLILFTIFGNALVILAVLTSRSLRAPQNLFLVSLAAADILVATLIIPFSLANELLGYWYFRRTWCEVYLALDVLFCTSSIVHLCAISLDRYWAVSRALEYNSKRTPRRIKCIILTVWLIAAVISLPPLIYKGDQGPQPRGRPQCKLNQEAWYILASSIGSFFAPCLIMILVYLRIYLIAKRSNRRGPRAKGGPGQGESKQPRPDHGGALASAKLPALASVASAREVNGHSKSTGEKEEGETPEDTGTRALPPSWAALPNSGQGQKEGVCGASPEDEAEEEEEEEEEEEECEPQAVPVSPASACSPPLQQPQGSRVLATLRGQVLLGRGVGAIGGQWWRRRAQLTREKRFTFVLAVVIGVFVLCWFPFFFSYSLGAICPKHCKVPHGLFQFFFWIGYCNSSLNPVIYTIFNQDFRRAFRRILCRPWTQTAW
Method in brief: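 Recombinant human α2B receptor membranes incubated with compounds in 50 mM Tris-HCl pH 7.4, 5 mM MgCl2, 1 mM CaCl2, 0.2% BSA, 1% DMSO vehicle. Non-specific binding defined with 10 μM rauwolscine. Values are percent inhibition of specific binding or estimated Ki.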

[3] = molecular target: T3, Human adrenergic α2A receptor (Homo sapiens, UniProt P08913); experiment: Radioligand binding, adrenergic α2A (Protocol Group B); settings: Protocol Group B
T3 sequence (P08913 1-465): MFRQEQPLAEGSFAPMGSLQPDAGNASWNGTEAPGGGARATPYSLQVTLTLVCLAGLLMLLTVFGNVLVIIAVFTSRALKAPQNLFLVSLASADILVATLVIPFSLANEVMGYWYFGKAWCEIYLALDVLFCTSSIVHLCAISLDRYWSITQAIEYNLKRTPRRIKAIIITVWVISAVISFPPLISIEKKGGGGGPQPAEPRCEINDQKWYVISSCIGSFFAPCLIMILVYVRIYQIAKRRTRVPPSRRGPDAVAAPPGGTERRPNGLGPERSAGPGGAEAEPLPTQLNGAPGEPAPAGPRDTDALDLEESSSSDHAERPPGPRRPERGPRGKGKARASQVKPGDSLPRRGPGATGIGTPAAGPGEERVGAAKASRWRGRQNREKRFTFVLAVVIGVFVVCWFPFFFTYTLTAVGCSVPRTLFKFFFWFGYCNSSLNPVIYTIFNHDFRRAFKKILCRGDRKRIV
Method in brief: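 Membranes from recombinant cells expressing the receptor, in 50 mM Tris-HCl pH 7.4 with 5 mM MgCl2, 1 mM CaCl2, 0.2% BSA; compounds incubated with 2 nM [^3H]MK-912 for 60 min at 25° C. Nonspecific binding defined by 10 μM rauwolscine; filtration, counting; percent inhibition of specific binding, or estimated Ki.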

SMILES	inhibition at 0.1 µM ([1]; 0.1 μM compound, read-out: Percentage inhibition of ligand binding, Adrenergic α1B (0.1 μM))	inhibition at 0.3 µM [1]	Ki ([2]; Ki α2B, estimated Ki)	inhibition at 0.01 µM ([2]; read-out: Percentage inhibition of ligand binding, Adrenergic α2B (10 nM), 10 nM compound)	inhibition at 0.03 µM ([2]; read-out: Percentage inhibition of ligand binding, Adrenergic α2B (30 nM), 30 nM compound)	inhibition at 0.1 µM ([2]; read-out: Percentage inhibition of ligand binding, Adrenergic α2B (0.1 μM), 0.1 μM compound)	inhibition at 0.1 µM ([3]; 0.1 μM compound, read-out: Percentage inhibition of ligand binding, Adrenergic α2A (0.1 μM))	inhibition at 0.3 µM ([3]; 0.3 μM compound, read-out: Percentage inhibition of ligand binding, Adrenergic α2A (0.3 μM))	Percentage inhibition of ligand binding, Adrenergic α1B (0.1 μM) ([1]; 0.1 μM compound)	Percentage inhibition of ligand binding, Adrenergic α2B (10 nM) [2]	Percentage inhibition of ligand binding, Adrenergic α2B (30 nM) [2]	Percentage inhibition of ligand binding, Adrenergic α2B (0.1 μM) [2]	Percentage inhibition of ligand binding, Adrenergic α2A (0.1 μM) ([3]; 0.1 μM compound)	Percentage inhibition of ligand binding, Adrenergic α2A (0.3 μM) ([3]; 0.3 μM compound)	Percentage inhibition of ligand binding, Adrenergic α1B (0.3 μM) [1]
Cc1ccc2c(c1)c1c(n2CC(C)(O)c2cccnc2)CC2CCC1N2C (single isomer, unassigned) [101a]	6%	17%	16.2 nM	23%	38%	71%	7%	21%							
Cc1ccc2c(c1)c1c(n2CC(C)(O)c2cccnc2)CC2CCC1N2C (single isomer, unassigned) [101b]		5%							−3%	2%	3%	32%	1%	8%	
Cc1ccc2c(c1)c1c(n2CC(C)(O)c2cccnc2)CC2CCC1N2C (single isomer, unassigned) [101c]									12%	7%	5%	16%	6%	7%	7%
Cc1ccc2c(c1)c1c(n2CC(C)(O)c2cccnc2)CC2CCC1N2C (single isomer, unassigned) [101d]									4%	−2%	−3%	9%	−10%	3%	8%
Cc1ccc2c(c1)c1c(n2CC(C)(O)c2ccc(F)cc2)CC2CCC1N2C (single isomer, unassigned) [102a]									5%	2%	13%	38%	−8%	5%	22%
Cc1ccc2c(c1)c1c(n2CC(C)(O)c2ccc(F)cc2)CC2CCC1N2C (single isomer, unassigned) [102c]									−4%	−14%	−5%	−8%	−12%	−5%	5%
Cc1ccc2c(c1)c1c(n2CC(C)(O)c2ccc(F)cc2)CC2CCC1N2C (single isomer, unassigned) [102d]									−1%	−8%	6%	−8%	−8%	4%	−5%
Cc1ccc2c(c1)c1c(n2CC(C)(O)c2ccc(F)cc2)CN2CCC1C2 (single isomer, unassigned) [134a]									−6%		−8%		−5%		
Cc1ccc2c(c1)c1c(n2CC(C)(O)c2ccc(F)cc2)CN2CCC1C2 (single isomer, unassigned) [134b]									29%		40%		7%		
Cc1ccc2c(c1)c1c(n2CC(C)(O)c2ccc(F)cc2)CN2CCC1C2 (single isomer, unassigned) [134c]									8%		8%		4%		
